Results as given in ChEMBL document CHEMBL1201862, “PubChem BioAssay data set” (2004).
The source made the active and inactive calls.

Legend:
[1] = target: T1, Calpain-2 catalytic subunit (Sus scrofa, UniProt P43367); test: m-calpain protease blockers, concentration series – biochemical, fluorogenic peptide substrate, dose response (AID 1420); format: functional
T1 sequence (P43367 whole entry): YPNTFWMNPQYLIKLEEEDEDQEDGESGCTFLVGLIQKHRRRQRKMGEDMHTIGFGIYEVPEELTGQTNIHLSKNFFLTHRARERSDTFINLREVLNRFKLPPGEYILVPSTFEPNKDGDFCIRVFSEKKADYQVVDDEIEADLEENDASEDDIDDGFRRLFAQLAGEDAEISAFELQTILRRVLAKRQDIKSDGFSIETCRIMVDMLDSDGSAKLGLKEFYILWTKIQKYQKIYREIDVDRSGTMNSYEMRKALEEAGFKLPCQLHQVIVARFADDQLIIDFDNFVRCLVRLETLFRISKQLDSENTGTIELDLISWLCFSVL

[2] = target: T2, Short transient receptor potential channel 4 (Mus musculus, UniProt Q9QUQ5); test: block of DAMGO-driven TRPC4 calcium entry – cell-based, HEK293 TRPC4/mu-opioid, Fluo-4 calcium, dose response (AID 434942); format: functional;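 further: potency of inhibitors blocking the TRPC4 calcium response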
T2 sequence (Q9QUQ5 whole entry): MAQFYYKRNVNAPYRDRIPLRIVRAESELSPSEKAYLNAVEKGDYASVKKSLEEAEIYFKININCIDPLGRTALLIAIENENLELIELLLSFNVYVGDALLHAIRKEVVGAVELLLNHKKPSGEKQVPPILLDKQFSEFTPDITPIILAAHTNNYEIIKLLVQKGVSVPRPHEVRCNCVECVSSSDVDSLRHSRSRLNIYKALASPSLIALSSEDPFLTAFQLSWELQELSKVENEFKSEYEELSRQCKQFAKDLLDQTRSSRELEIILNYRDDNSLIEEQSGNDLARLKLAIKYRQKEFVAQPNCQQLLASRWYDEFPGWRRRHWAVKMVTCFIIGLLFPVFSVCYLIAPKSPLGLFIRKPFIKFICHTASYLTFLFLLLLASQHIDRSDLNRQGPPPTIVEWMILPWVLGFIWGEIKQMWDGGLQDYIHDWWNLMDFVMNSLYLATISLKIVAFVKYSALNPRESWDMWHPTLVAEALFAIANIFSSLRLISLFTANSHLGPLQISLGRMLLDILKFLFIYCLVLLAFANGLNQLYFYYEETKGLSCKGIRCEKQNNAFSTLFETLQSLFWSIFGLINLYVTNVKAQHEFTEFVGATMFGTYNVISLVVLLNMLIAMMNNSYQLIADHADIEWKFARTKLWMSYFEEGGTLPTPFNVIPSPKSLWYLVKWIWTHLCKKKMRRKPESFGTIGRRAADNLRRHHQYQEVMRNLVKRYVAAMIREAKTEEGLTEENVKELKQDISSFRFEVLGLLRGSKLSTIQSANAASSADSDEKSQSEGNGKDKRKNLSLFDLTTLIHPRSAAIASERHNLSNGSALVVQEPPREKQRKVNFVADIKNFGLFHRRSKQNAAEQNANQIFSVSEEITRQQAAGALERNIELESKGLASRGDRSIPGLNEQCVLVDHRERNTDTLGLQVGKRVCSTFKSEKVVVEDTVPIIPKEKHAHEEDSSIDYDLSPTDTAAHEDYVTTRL

[3] = target: Peroxisome proliferator-activated receptor gamma/Nuclear receptor coactivator 1 (Homo sapiens, UniProt P37231); format: functional;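 further: agonist potency as compounds enhance coactivator SRC-1 recruitment to PPARgamma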
Sequence of Peroxisome proliferator-activated receptor gamma/Nuclear receptor coactivator 1 (P37231 whole entry): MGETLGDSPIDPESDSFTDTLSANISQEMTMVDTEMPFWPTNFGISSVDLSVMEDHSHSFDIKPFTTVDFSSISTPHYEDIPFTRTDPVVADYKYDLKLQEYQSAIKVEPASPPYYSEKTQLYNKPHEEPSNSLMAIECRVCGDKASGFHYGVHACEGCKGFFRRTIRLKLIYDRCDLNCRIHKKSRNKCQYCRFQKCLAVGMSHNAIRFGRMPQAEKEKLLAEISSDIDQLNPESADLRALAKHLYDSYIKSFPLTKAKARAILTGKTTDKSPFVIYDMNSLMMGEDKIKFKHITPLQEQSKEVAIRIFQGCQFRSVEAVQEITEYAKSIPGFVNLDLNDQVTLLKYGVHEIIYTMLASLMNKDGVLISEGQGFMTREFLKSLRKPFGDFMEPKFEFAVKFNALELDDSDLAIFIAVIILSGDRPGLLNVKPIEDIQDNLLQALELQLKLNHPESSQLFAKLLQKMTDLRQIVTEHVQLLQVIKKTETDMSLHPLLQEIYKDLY
Sequence of Peroxisome proliferator-activated receptor gamma/Nuclear receptor coactivator 1 (Q15788 whole entry, further chain): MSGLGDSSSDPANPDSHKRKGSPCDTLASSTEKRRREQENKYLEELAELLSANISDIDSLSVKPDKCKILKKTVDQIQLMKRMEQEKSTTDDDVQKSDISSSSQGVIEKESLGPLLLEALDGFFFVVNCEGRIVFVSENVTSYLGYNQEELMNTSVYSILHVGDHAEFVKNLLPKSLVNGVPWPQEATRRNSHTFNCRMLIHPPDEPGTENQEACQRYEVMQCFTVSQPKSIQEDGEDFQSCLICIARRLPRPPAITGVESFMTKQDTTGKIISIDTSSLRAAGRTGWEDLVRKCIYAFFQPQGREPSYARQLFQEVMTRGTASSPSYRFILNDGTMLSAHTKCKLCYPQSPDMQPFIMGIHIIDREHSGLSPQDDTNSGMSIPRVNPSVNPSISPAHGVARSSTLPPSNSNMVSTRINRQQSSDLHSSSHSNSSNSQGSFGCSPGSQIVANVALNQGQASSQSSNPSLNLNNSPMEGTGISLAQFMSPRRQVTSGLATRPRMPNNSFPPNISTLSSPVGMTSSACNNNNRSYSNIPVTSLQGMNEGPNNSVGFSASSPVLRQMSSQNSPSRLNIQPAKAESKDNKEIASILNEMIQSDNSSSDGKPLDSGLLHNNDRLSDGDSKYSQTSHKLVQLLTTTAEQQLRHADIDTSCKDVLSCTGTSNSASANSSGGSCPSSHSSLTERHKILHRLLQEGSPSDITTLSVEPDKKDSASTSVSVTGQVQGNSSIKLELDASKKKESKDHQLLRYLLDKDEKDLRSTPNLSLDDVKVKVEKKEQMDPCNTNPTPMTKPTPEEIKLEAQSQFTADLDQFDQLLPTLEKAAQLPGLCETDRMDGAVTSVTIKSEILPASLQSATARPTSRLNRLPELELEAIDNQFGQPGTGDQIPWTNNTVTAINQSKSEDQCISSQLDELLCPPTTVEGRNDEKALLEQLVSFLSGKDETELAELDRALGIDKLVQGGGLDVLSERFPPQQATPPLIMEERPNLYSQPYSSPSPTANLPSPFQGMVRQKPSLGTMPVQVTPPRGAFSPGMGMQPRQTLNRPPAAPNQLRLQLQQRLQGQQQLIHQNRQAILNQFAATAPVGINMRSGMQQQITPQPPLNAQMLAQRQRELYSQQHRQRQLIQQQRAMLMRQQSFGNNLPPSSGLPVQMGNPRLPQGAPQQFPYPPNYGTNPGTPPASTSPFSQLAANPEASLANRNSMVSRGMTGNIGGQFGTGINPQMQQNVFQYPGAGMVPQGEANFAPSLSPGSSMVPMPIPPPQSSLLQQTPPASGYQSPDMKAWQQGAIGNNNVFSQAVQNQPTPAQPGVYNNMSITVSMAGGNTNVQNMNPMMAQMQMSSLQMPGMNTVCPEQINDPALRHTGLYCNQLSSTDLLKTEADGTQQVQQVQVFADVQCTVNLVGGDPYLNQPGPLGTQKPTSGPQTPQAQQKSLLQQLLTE

[4] = target: Peroxisome proliferator-activated receptor gamma/Nuclear receptor coactivator 2 (Homo sapiens, UniProt P37231); format: functional;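 further: agonist potency for raising coactivator recruitment to the receptor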
[5] = target: Peroxisome proliferator-activated receptor gamma/Nuclear receptor coactivator 3 (Homo sapiens, UniProt P37231); format: functional;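 further: agonist potency for raising coactivator recruitment to the receptor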
Sequence of Peroxisome proliferator-activated receptor gamma/Nuclear receptor coactivator 3 (P37231 whole entry): as the sequence (P37231 whole entry) above
Sequence of Peroxisome proliferator-activated receptor gamma/Nuclear receptor coactivator 3 (Q9Y6Q9 whole entry, further chain): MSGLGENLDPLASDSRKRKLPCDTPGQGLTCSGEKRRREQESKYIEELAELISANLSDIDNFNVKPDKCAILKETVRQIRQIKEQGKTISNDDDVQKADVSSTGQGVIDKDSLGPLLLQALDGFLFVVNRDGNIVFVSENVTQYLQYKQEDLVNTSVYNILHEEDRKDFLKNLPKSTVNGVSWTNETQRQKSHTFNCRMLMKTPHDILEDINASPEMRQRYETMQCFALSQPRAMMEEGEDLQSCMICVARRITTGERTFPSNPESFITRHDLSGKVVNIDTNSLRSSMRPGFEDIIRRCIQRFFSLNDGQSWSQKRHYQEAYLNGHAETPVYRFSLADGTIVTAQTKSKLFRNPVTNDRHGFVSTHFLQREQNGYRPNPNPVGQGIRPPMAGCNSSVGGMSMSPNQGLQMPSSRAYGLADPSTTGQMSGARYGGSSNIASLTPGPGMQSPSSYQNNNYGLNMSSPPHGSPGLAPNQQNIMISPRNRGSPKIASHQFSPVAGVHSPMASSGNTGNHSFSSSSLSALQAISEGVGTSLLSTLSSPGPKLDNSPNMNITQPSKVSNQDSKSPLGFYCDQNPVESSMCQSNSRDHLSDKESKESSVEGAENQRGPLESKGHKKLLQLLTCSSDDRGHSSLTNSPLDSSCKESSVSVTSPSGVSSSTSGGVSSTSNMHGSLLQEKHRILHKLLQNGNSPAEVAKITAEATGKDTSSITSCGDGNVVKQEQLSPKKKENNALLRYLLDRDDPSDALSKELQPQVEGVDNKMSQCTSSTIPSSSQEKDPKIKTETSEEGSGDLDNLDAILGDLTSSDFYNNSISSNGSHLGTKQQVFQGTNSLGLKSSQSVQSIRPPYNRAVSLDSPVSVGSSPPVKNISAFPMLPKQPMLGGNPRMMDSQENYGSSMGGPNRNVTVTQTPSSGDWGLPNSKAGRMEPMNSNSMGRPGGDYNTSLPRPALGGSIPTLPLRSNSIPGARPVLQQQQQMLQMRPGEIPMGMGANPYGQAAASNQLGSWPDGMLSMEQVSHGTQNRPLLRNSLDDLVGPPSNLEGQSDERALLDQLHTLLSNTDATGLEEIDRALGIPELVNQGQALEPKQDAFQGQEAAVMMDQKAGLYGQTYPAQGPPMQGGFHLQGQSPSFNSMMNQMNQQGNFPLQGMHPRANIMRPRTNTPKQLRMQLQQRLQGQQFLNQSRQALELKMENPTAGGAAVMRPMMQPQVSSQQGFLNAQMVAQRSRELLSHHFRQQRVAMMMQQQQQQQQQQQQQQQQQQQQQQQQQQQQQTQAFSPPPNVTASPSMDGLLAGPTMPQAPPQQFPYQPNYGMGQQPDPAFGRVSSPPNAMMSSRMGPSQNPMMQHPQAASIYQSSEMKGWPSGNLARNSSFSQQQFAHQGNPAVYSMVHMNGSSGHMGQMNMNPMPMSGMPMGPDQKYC

[6] = target: Endoplasmic reticulum aminopeptidase 1 (Homo sapiens, UniProt Q9NZ08); test: inhibition of human ERAP1 enzyme activity – biochemical, cherry-pick, set 2, plate reader, dose response (AID 743314)
Sequence of Endoplasmic reticulum aminopeptidase 1 (Q9NZ08 whole entry): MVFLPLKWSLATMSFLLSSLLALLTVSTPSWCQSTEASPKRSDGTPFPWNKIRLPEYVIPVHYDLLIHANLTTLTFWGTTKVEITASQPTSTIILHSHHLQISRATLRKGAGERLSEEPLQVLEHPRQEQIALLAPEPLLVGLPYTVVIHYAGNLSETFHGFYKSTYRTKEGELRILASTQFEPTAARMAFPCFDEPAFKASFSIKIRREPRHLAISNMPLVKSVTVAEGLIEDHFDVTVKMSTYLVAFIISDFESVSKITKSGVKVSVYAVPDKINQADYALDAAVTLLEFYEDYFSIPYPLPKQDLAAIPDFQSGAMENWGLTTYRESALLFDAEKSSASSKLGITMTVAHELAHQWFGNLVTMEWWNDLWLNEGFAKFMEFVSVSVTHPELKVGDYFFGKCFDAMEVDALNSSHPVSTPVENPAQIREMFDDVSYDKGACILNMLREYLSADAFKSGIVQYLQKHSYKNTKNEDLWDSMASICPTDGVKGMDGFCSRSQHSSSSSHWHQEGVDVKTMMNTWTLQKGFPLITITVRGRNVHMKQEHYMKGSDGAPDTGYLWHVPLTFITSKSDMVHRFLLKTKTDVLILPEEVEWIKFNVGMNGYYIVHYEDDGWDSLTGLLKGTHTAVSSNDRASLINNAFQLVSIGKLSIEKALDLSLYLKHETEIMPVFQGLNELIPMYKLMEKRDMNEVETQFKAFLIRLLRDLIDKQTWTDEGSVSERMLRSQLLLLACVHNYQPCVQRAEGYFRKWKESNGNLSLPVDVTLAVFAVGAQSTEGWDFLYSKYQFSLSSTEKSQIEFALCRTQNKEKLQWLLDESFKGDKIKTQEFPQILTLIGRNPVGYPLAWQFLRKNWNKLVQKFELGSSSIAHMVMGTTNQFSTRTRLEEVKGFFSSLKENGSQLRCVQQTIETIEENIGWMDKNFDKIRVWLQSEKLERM

[7] = HPDE-C7 pancreatic duct cell viability loss – fluorescence, HTS (AID 430); format: functional, cell-based; details: Homo sapiens
[8] = microbe, parasite or virus in culture; format: functional; details: Mycobacterium tuberculosis
[9] = viability loss of HPDE-C7K cells – cell-based, fluorescence, HTS, primary screen (AID 431); format: functional; details: Homo sapiens
[10] = HIV-1 Vif–A3G interaction blockers – biochemical, TR-FRET, GST-Vif 1-94, biotin-A3G peptide, dose response retest, primary screen (AID 1117319); format: functional;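 further: TR-FRET signal of purified GST-Vif binding a biotinylated A3G peptide; inhibitors lower the FRET signal by blocking Vif and A3G binding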
[11] = viability loss in Vero cells – cytotoxicity control for Vif-APOBEC3G degradation inhibitor project, dose response (AID 1117358); format: functional; details: Vero
[12] = target: T3, Mannose-6-phosphate isomerase (Homo sapiens, UniProt P34949); test: MPI inhibition at elevated mannose 6-phosphate – biochemical, fluorescence intensity, high mannose 6-phosphate, primary screen (AID 1220)
T3 sequence (P34949 whole entry): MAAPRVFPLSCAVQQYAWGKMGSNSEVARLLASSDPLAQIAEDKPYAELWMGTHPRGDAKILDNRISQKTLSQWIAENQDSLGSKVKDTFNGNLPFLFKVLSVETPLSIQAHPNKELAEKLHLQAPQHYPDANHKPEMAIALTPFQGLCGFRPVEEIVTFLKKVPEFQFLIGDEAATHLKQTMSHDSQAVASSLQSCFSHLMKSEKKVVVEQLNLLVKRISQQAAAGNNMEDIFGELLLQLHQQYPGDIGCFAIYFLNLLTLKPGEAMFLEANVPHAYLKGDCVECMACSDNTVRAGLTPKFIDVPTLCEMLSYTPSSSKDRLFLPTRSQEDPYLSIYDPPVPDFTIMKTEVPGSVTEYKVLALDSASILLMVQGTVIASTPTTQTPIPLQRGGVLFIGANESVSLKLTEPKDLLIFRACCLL

Leucine aminopeptidase = target: T4, Leucine aminopeptidase (Plasmodium falciparum 3D7, UniProt Q8IL11); test: P. falciparum M17LAP inhibitors, primary screen, biochemical, fluorogenic H-Leu-NHMec substrate, 1536-well (AID 1619); format: functional
T4 sequence (Q8IL11 whole entry): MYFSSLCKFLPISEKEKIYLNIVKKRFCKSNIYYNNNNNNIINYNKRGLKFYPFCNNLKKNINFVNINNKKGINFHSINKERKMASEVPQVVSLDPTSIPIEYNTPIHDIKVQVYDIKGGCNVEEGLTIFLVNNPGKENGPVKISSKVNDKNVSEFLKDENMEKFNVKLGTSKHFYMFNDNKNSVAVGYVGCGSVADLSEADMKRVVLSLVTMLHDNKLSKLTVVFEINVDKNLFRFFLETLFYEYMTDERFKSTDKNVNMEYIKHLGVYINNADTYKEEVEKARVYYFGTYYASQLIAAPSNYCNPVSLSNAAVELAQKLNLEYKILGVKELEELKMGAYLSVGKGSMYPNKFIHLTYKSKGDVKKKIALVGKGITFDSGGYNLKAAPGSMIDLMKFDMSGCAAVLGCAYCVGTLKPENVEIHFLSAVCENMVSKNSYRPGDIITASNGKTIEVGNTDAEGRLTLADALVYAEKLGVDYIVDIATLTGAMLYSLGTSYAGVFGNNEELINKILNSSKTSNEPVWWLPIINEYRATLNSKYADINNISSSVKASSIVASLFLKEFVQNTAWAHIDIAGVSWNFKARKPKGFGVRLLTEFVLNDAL

Streptokinase A = target: T5, Streptokinase A (Streptococcus pyogenes serotype M1, UniProt P10520); test: viability-normalized secreted streptokinase activity reduction – plasminogen activation absorbance, OD405, dose response (AID 1914); format: functional, Streptococcus pyogenes M1 GAS;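 further: secreted streptokinase activity via plasminogen activation per viability signal from cell pellet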
T5 sequence (P10520 whole entry): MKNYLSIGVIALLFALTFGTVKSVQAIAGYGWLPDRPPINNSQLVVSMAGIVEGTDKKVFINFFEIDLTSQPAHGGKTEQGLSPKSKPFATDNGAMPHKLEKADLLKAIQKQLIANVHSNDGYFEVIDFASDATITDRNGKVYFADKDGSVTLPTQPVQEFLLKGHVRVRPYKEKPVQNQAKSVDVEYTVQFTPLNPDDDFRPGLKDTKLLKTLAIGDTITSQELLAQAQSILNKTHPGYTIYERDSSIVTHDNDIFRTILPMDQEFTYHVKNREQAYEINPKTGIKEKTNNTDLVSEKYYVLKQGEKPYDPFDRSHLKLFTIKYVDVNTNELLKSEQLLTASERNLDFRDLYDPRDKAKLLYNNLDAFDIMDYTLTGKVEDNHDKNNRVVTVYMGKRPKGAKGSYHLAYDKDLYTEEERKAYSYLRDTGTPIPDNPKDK

[13] = Luminescence Cell-Based Dose Retest to Confirm Inhibitors of Cancer Stem Cells. [Related pubchem assays (depositor defined):AID2717, AID2721]; format: functional; details: Homo sapiens
[14] = tested on: Streptococcus sp. 'group A'; test: Streptococcus pyogenes SK(-)GAS viability under kanamycin – luminescence, BacTiterGlo, confirmation, counter-screen for streptokinase expression inhibitor project, dose response (AID 1900); format: functional, organism-based
[15] = target: Disintegrin and metalloproteinase domain-containing protein 17 (Homo sapiens, UniProt P78536); test: inhibition of ADAM17 substrate cleavage – biochemical, quenched FRET substrate, counter-screen for ADAM10 exosite inhibitor project, dose response (AID 743253)
[16] = NIH3T3 cell viability loss – ATP luminescence, mouse fibroblasts, counter-screen, dose response (AID 2010); format: functional, cell-based;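 further: cells exposed to compound for about 90 hours before reading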
[17] = Trypanosoma cruzi growth suppression in host cells – NIH3T3 host cells, beta-gal luminescence, confirmation (AID 2044); format: functional, cell-based;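 further: intracellular parasites grown in NIH/3T3 mouse fibroblasts as host cells; luminescent beta-galactosidase reporter signal from transgenic T. cruzi replicating inside host cells; inhibitors lower the luminescence signal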
Streptococcus = test: GAS UMAA2166 growth inhibition – luminescence, BacTiterGlo, counter-screen for streptokinase expression inhibitor project, dose response (AID 1915); format: functional, organism-based;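 further: potency for reduction of bacterial viability or growth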
[18] = viability of uninfected HEp-2 cells – cell-based, HTS, cytotoxicity control for RSV inhibitor project, dose response (AID 2410); format: functional; details: human respiratory syncytial virus
[19] = off-target signal loss in HeLa-CEM21 co-culture – HeLa F-luc CTL cells, cherry-picked, counter-screen for HIV-1 Env fusion inhibitor project, dose response (AID 652040); format: functional, cell-based;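 further: potency for signal decrease marking cytotoxic or nonspecific inhibition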
cells [20] = format: functional
[21] = target: DNA dC->dU-editing enzyme APOBEC-3G (Homo sapiens, UniProt Q9HC16); test: Dose Response confirmation of small molecule APOBEC3G DNA Deaminase Inhibitors via a fluorescence-based single-stranded DNA deaminase assay. [Related pubchem assays (depositor defined):AID493012, AID493028]; format: functional
cells [22] = format: functional, cell-based
cells [23] = format: functional, cell-based; remark: listed apart in the source
[24] = target: Glucose-6-phosphate 1-dehydrogenase (Homo sapiens, UniProt P11413); test: inhibition of Homo sapiens G6PD, dose series – biochemical, fluorescence, selectivity assay for P. falciparum G6PD inhibitor project, dose response (AID 504792); format: functional

## COCCn1c(C)cc(C(=O)COC(=O)CNC(=O)c2ccccc2)c1C
[1]
  IC50: > 50 µM (not active)

## O=c1c2ccccc2[nH]c(=S)n1CCN1CCN(Cc2ccccc2)CC1
[2]
  EC50: 4.73 µM (active)

## CCn1c(=N)n(CC(=O)c2ccc(Br)s2)c2ccccc21
[2]
  EC50: 13.3 µM (active)

## COC(=O)c1ccccc1NC(=O)c1cc(-c2ccc(O)cc2)on1
[3]
  EC50: 24.9 µM (not active)
[4]
  EC50: 31.5 µM (not active)
[5]
  EC50: 33.6 µM (not active)

## O=C(NCc1ccccc1)[C@@H]1[C@@H](CO)[C@@H]2Cn3c(ccc(/C=C/c4ccccc4)c3=O)[C@H]1N2CC1CC1
[6]
  AC50: 11.1 µM (active)

## CC(C)(C)c1ccc(Cn2nnc3c(O)nc(C4CCCN(C(=O)Cc5cccs5)C4)nc32)cc1 (stereo not given)
[7]
  EC50: 15.6 µM (active)
[8]
  CC50: > 40 µM (active)
[9]
  EC50: 18.4 µM (active)

## CCOC(=O)C1=C(C)N=C(C)/C(=C(/O)OC)C1c1cccc(Cl)c1Cl (stereo not given)
[7]
  EC50: 8.98 µM (active)
[9]
  EC50: 10.4 µM (active)

## O=C(c1ccc(S(=O)(=O)N2CCOCC2)cc1)N1CCN(c2cccc(Cl)c2)CC1
[10]
  IC50: > 100 µM (active)

## COC(=O)c1cnn2c(C)c(Cc3cccc(F)c3)c(C)nc12
[11]
  CC50: > 40 µM (active)

## CCN1[C@@H]2c3ccc(/C=C/c4ccccc4)c(=O)n3C[C@H]1[C@H](CO)[C@H]2C(=O)N1CCOCC1
[6]
  AC50: 6.11 µM (active)

## CC(C)(C)NC(=O)c1ccc(Sc2ccccc2)c([N+](=O)[O-])c1
[1]
  IC50: 11.9 µM (not active)

## N#Cc1cn(CCOc2ccccc2F)c2ccccc12
[11]
  CC50: > 40 µM (active)

## CN1[C@H](C(=O)NC2CCC2)[C@@H](CO)[C@@H]2Cn3c(ccc(/C=C/c4ccccc4)c3=O)[C@@H]21
[6]
  AC50: 18 µM (active)

## CCOC(=O)N1CCC(N2C(=O)c3ccccc3C2Nc2ccccc2)CC1 (stereo not given)
[10]
  IC50: > 100 µM (active)

## Cc1oc(-c2ccoc2)nc1CN(Cc1ccccc1)CC1CC1
[2]
  EC50: 4.22 µM (active)

## CC(C)c1ccc(C(=O)CSc2nc[nH]n2)cc1
[12]
  IC50: 9.69 µM (active)
Leucine aminopeptidase
  IC50: 33 µM (active)

## COc1ccc(CCN2C(=O)c3cccnc3C2=O)cc1OC
[10]
  IC50: > 100 µM (active)

## O=[N+]([O-])c1ccc(S(=O)(=O)Nc2ccc(-c3csc(-c4ccccc4)n3)cc2)cc1
Streptokinase A
  EC50: > 150 µM (not active)
[13]
  AC50: 2.33 µM (active)
[14]
  EC50: 3.77 µM (active)
[15]
  IC50: > 69.5 µM (inactive)
[16]
  EC50: > 60 µM (not active)
[17]
  EC50: 0.118 µM (active)
Streptococcus
  EC50: 8.29 µM (active)

## CCOC(=O)c1c2c(c(=S)n(-c3ccccc3)c1N)CCC2
[7]
  EC50: 10.4 µM (active)
[9]
  EC50: 9.88 µM (active)
[1]
  IC50: 7.26 µM (not active)
[18]
  CC50: 26.4 µM (active)

## COc1ccc(OCC(=O)Nc2cc(-c3nn(C)c(=O)c4ccccc34)ccc2OC)cc1
[3]
  EC50: 62.6 µM (not active)
[4]
  EC50: 31.2 µM (not active)
[19]
  AC50: 30.3 µM (active)
[5]
  EC50: 76.6 µM (not active)

## Oc1ccc(F)c2cccnc12
Cells [20]
  IC50: 4.21 µM (active)
[12]
  IC50: 7.42 µM (active)

## CCC(C)(C)c1nnc(NC(=O)C2CCN(C(=O)c3ccco3)CC2)s1
[21]
  IC50: 25.9 µM (active)
Cells [22]
  EC50: > 350 µM (not active)
Cells [23]
  EC50: > 350 µM (not active)
[24]
  IC50: > 80 µM (inactive)

## Cc1ccc(CN(C(=O)Cn2nnc3ccccc32)C(C(=O)NCc2ccco2)c2cccs2)cc1 (stereo not given)
[11]
  CC50: > 40 µM (active)
